# In article PMC3471904 (PLoS ONE, 2012):
# Several values for one entry are separate records, joined by “and”; a condition that tells them apart may be missing. Equal entries are not always repeated. Entries after “also recorded” stand apart in the source; their conditions may differ. Where two headings read alike, the source gives them in different places.
# How the values were obtained:
# Wild-type F. novicida = assay: microbe, parasite or virus in culture; type: cell-based; conditions: for inhibition at 1000 µM: read-out: Inhibition of growth
# F. novicida glpT mutant = type: cell-based
# F. novicida = tested on: F. novicida; parameters: species or system Galleria mellonella; conditions: in vivo
# F. tularensis LVS DXR = F. tularensis LVS DXR (Francisella tularensis subsp. holarctica, UniProt Q2A4P9); assay: biochemical
# [1] = tested on: intracellular F. novicida in A549 human alveolar epithelial cells; assay: microbe, parasite or virus in culture; type: cell-based
# [2] = tested on: intracellular F. novicida glpT mutant in A549 cells; type: cell-based
# [3] = tested on: human lung epithelial A549 cells
# [4] = tested on: mouse macrophage RAW264.7 cells
# DXR of E. coli = conditions: cited from earlier work
# [5] = tested on: M. tuberculosis whole cells; conditions: cited from earlier work
# [6] = mouse, in vivo; cited from earlier work
# [7] = tested on: intracellular F. novicida in RAW264.7 mouse macrophages; type: cell-based
# DXR from M. tuberculosis = conditions: read-out: half maximal activity against DXR; cited from earlier work
# [8] = Francisella tularensis, A549, 20 h, read-out: Inhibition of intracellular growth
# Chain of F. tularensis LVS DXR (Q2A4P9 whole entry, looked up): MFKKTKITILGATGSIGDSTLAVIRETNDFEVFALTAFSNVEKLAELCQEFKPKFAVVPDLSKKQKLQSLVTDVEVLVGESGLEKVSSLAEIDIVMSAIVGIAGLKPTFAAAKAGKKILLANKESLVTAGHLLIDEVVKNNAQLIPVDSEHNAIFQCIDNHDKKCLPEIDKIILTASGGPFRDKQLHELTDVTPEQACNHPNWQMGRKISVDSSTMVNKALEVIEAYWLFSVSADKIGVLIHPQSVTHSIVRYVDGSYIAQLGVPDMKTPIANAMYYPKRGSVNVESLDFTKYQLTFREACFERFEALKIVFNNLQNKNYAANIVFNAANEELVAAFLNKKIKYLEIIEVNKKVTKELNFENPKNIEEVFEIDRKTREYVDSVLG
compound,measurement,setting,value
CCCCCCOP(=O)(CCCN(O)C(C)=O)OCCCCCC [Compound 2],Percent inhibition of growth (OD600 treated vs untreated),Wild-type F. novicida,27±14%
same,EC50,Wild-type F. novicida; Francisella tularensis,481 ± 44 µM
same,MIC,Wild-type F. novicida; Francisella tularensis,1100 µM
same,MIC,"Wild-type F. novicida; Francisella tularensis, 48 h",1090 µM
same,MIC,F. novicida glpT mutant,>1000 µM
same,Percent inhibition of growth (OD600 treated vs untreated),F. novicida glpT mutant,11±7%
O=C(O)c1cn(C2CC2)c2cc(N3CCNCC3)c(F)cc2c1=O [Ciprofloxacin],Mean time to death,F. novicida; 20 mg/kg,103 h
CC(=O)N(O)CCCP(=O)(O)O [FR900098],EC50,Wild-type F. novicida,23.2 ± 1.2 µM
same,Percent inhibition of growth (OD600 treated vs untreated),Wild-type F. novicida,97.1±0.8%
same,EC50,Wild-type F. novicida; Francisella tularensis,23 µM
same,MIC,"Wild-type F. novicida; Francisella tularensis, 48 h",254 µM
same,inhibition at 1000 µM,Wild-type F. novicida; Francisella tularensis,100%
same,MIC,F. novicida glpT mutant,>1000 µM
same,Percent inhibition of growth (OD600 treated vs untreated),F. novicida glpT mutant,55±5%
same,IC50,F. tularensis LVS DXR,0.23 µM
same,Inhibition of intracellular growth,[1],85±10%
same,Intracellular F. novicida remaining,[1],0.56±0.26 ×10^3 CFU/well and 0.59±0.40 ×10^3 CFU/well
same,inhibition at 250 µM,[1]; [8],86 ± 6%
same,Effect on intracellular glpT mutant replication,[2],not affected; also recorded: no effect
same,Mean time to death,F. novicida; 30 mg/kg,84 h
same,Cytotoxicity by LDH release,[3],did not induce cytotoxicity
same,Cytotoxicity by LDH release,[4],did not induce cytotoxicity
same,IC50,DXR of E. coli; read-out: IC50 against the DXR of E. coli,0.062 µM
same,Effect on whole cells,[5],no effect on whole cells
same,Well tolerated dose,[6],up to 300 mg/kg
O=CN(O)CCCP(=O)(O)O [Fosmidomycin],EC50,Wild-type F. novicida,3.6 ± 0.2 µM
same,Percent inhibition of growth (OD600 treated vs untreated),Wild-type F. novicida,99.6±0.2%
same,EC50,Wild-type F. novicida; Francisella tularensis,3.5 µM
same,MIC,"Wild-type F. novicida; Francisella tularensis, 48 h",136 µM
same,inhibition at 1000 µM,Wild-type F. novicida; Francisella tularensis,100%
same,Inhibition of growth,F. novicida glpT mutant,not able to inhibit F. novicida glpT growth at all; also recorded: completely resistant
same,MIC,F. novicida glpT mutant,>1000 µM
same,Percent inhibition of growth (OD600 treated vs untreated),F. novicida glpT mutant,did not inhibit the growth of the glpT mutant at all
same,Intracellular F. novicida remaining,[1],0.07±0.03 ×10^3 CFU/well
same,Reduction of intracellular bacteria,[1],2 log
same,inhibition at 250 µM,[1]; [8],98 ± 0.7%
same,Intracellular F. novicida remaining,[7],0.93±0.20 ×10^5 CFU/well
same,Effect on intracellular glpT mutant replication,[2],not affected; also recorded: no effect
same,Mean time to death,F. novicida; 30 mg/kg,102 h
same,Cytotoxicity by LDH release,[3],did not induce cytotoxicity
same,Cytotoxicity by LDH release,[4],did not induce cytotoxicity
same,IC50,DXR of E. coli; read-out: half maximal activity against DXR,0.035 µM
same,IC50,DXR from M. tuberculosis,0.31 µM
same,Effect on whole cells,[5],no effect on whole cells
same,Well tolerated dose,[6],up to 300 mg/kg
CCOP(=O)(CCCN(O)C(C)=O)OCC [Compound 3],Inhibition of F. novicida (result in words),Wild-type F. novicida,did not effectively inhibit; also recorded: ineffective
CC(=O)N(O)CCCP(=O)(OC(C)OC(=O)c1ccccc1)OC(C)OC(=O)c1ccccc1 (stereo not drawn) [Compound 1],EC50,Wild-type F. novicida,45.2 ± 3.7 µM
same,Percent inhibition of growth (OD600 treated vs untreated),Wild-type F. novicida,100%
same,EC50,Wild-type F. novicida; Francisella tularensis,45 µM
same,MIC,"Wild-type F. novicida; Francisella tularensis, 48 h",202 µM
same,MIC,F. novicida glpT mutant,200 µM
same,Percent inhibition of growth (OD600 treated vs untreated),F. novicida glpT mutant,100%
same,inhibition at 250 µM,[1]; [8],97 ± 0.8%
same,inhibition at 400 µM,[1]; [8],99 ± 0.7%
same,Intracellular F. novicida remaining,[7],1.68±0.28 ×10^5 CFU/well and 0.92±0.18 ×10^5 CFU/well
same,Effect on intracellular glpT mutant replication,[2],susceptible; also recorded: significant effect
same,Intracellular glpT mutant remaining,[2],22.32±2.23 ×10^3 CFU/well
same,Mean time to death,F. novicida; 30 mg/kg,93 h
same,Cytotoxicity by LDH release,[3],did not induce cytotoxicity
same,Cytotoxicity by LDH release,[4],did not induce cytotoxicity
